Experimental data taken from patent US6451800B1, “Phenylpiperazine derivatives as integrin αvβ3 antagonists” (Meiji Seika Kaisha, Ltd., priority 1998, dated 2002).
pIC50: −log10 of the molar value.

What was measured:
[1] = test system: human vascular smooth muscle cells; test: Inhibition of adhesion of human vascular smooth muscle cells to immobilized human vitronectin; assay type: cell-based; conditions: read-out: IC50, inhibitory activity against the adhesion of human vascular smooth muscle cells to vitronectin
Experimental: Inhibitory Activity Against Adhesion of Human Vascular Smooth Muscle Cells to Vitronectin
The adhesion of human vascular smooth muscle cells to immobilized human vitronectin was measured in accordance with the method of Liaw et al. (Liaw L, Almeida M, Hart C E, Schwartz S M, and Giachelli C M, Circulation Research, 74 (2), 214-224 (1994)).
A Dulbecco's phosphate buffer (Dulbecco's PBS(−), Nissui Pharmaceutical Co., Ltd.) solution of human plasma-derived vitronectin (CALBIOCHEM) adjusted to a concentration of 4 μg/ml was first added to wells (50 μl/well) of a microplate (Maxisorp, Nunc), and a reaction for immobilization was allowed to proceed at 4° C. overnight. […]
Next, 50 μl of a Dulbecco's modified Eagle's basal medium containing 10 mg/ml of bovine serum albumin with a medicament added thereto was added to the wells of the human vitronectin-coated assay microplate, followed by pre-cultivation under 5% carbon dioxide at 37° C. for 10 min. […] The absorbance of the microplate thus obtained was measured at 595 nm. […] The inhibition was calculated by the following equation. IC50 was determined from a primary regression line of the logarithm of each concentration of the test compound and the logarithm of (100−inhibition)/inhibition. […]

[2] = molecular target: T1, integrin αvβ3 (vitronectin receptor purified from the human placenta) (Homo sapiens, UniProt P05106+P06756); test: αvβ3 binding assay (vitronectin-vitronectin receptor binding assay); conditions: vitronectin receptor from human placenta; read-out: IC50, inhibition of binding between vitronectin and vitronectin receptor (αvβ3 binding inhibitory activity)
T1 construct: a vitronectin receptor (protein content: 118 μg/ml) purified from the human placenta; from tissue; host or cells: human placenta
T1 sequence (P06756 31-889 limits assumed): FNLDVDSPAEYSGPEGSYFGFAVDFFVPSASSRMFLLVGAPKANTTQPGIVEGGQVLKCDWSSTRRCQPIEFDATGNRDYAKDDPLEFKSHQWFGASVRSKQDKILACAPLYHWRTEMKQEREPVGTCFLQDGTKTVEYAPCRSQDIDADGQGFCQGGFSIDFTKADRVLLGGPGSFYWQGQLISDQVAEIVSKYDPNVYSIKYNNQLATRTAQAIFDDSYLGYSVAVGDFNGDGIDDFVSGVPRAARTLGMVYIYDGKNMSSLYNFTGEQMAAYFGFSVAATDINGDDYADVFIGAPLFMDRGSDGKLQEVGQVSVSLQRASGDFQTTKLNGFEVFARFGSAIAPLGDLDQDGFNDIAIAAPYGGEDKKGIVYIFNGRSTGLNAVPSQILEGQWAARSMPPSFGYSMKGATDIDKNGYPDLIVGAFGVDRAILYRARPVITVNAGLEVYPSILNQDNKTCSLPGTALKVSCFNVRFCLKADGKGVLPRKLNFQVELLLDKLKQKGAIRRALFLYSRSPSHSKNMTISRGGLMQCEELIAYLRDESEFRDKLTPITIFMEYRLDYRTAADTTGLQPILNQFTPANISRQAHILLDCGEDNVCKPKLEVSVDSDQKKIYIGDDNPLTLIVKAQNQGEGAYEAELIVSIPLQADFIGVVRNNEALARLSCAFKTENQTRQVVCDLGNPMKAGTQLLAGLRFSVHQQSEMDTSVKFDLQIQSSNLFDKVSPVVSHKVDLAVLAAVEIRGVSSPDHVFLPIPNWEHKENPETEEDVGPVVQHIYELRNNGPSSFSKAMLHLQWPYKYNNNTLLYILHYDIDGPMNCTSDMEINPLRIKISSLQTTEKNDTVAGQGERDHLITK
T1 sequence (P06756 891-1048 partner limits assumed): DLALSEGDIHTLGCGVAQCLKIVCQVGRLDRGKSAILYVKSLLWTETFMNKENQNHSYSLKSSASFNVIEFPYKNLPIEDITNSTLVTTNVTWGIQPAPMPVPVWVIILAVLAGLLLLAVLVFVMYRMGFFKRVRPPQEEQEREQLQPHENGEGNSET
T1 sequence (P05106 27-788): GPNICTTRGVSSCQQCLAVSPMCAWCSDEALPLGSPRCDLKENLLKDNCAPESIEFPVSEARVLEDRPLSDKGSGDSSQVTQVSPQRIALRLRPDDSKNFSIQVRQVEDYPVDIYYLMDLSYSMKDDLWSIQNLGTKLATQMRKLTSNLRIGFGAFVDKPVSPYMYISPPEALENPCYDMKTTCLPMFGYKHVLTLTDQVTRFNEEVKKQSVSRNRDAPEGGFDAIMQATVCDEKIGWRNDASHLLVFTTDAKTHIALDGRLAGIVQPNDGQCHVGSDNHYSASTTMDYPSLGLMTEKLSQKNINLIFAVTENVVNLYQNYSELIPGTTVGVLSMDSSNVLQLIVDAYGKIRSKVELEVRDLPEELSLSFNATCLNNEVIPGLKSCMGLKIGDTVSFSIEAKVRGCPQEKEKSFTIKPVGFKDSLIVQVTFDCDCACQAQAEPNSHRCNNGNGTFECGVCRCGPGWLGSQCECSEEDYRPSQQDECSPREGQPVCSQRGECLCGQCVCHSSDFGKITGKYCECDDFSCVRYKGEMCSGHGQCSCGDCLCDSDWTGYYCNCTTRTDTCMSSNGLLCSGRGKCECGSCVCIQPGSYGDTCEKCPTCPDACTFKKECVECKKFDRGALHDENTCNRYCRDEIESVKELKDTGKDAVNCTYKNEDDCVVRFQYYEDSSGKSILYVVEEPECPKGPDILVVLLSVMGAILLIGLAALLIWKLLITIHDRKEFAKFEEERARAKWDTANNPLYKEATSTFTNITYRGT
Experimental: Integrin αvβ3 antagonistic activity was measured for the compounds according to the present invention in a vitronectin-vitronectin receptor binding assay system in accordance with the method of Kouns et al. (W. C. Kouns, D. Kirchhofer, P. Hadvary, A. Edenhofer, T. Weller, G. Pfenninger, H. R. Baumgartner, L. K. Jennings and B. Steiner, Blood, 8, 2539-2547 (1992)).
Specifically, a vitronectin receptor (protein content: 118 μg/ml) purified from the human placenta in accordance with the method of Pytela et al. (R. Pytela, M. D. Pierschbacher, S. Argraves, S. Suzuki, and E. Ruoslahti, Method in Enzymology, 144, 475-489 (1987)) was diluted 50 times with TBS (20 mM Tris-HCl, 150 mM NaCl, 1 mM CaCl2, 1 mM MgCl2, pH 7.4), and distributed and coated on wells (50 μl/well) of a plate (Maxisorp, Nunc, 96 well Immuno Plate). The plate was then allowed to stand at 4° C. for 1 day, washed twice with TBS (200 μl/well), and then subjected to blocking with TBS (150 μl/well) containing 1% bovine serum albumin (SIGMA) at 4° C. overnight. After washing twice with TBS (200 μl/well), 50 μl of vitronectin (CALBIOCHEM) adjusted to 0.2 μg/ml by the addition of TBS (TBS-Tween) containing 0.01% Tween-20 was mixed with 50 μl of each test compound adjusted to each concentration in wells, and a reaction was allowed to proceed at room temperature for 4 hr. After the completion of the reaction, the wells were washed five times with TBS-Tween. A solution prepared by diluting anti-vitronectin rabbit antiserum (CHEMICON) 500 times with TBS-Tween was added as a primary antibody in an amount of 50 μl per well, and a reaction was allowed to proceed at room temperature for 1.5 hr. After washing five times with 200 μl/well of TBS-Tween, a peroxidase (POD)-labeled anti-rabbit IgG antibody solution (CAPPEL) diluted 500 times with TBS-Tween was added as a secondary antibody in an amount of 50 μl/well, and a reaction was allowed to proceed at room temperature for 1.5 hr. After washing five times with TBS-Tween (200 μl /well), ABTS (2,2′-azino-bis(3-ethylbenzthiazoline-6-sulfonic acid), SIGMA) was adjusted to 1 mg/ml by the addition of a ten-fold diluted POD-buffer (ZYMED), and added in an amount of 50 μl/well, and a reaction was allowed to proceed for 5 to 10 min. A 0.1 M citric acid buffer (pH 4.3) containing 0.05% NaN3 was added in an amount of 50 μl/well to stop the reaction, followed by the measurement of the absorbance at 415 nm with a microplate reader (MTP 32, Corona Electric) (reference: 675 nm). The total binding was defined as the absorbance after a reaction using 50 μl of TBS-Tween instead of the test compound, and the non-specific binding (100% inhibition) was defined as the absorbance after a reaction using 50 μl of TBS-Tween containing 2×10^−3 M RGDS. The inhibition was calculated by the following equation: [formula]
IC50 was determined from a primary regression line of the logarithm of each concentration of the test compound and the logarithm of (100−inhibition)/inhibition.

[3] = test system: human platelet aggregation; test: Human platelet aggregation inhibitory activity (method of Pharmacological Test 1 in WO 94/21599); assay type: cell-based
Experimental: (§1) GP IIb/IIIa Antagonistic Activity and Human Platelet Aggregation Inhibitory Activity
Human platelet aggregation inhibitory activity was measured for the compounds according to the present invention. The measurement of the human platelet aggregation activity was carried out according to the method described in Pharmacological Test 1 in WO 94/21599.

Oral absorption in rats = assay type: in vivo; conditions: data not shown
From the text: Therefore, any of the compounds, wherein R^9 represents an alkyl group or a hydrogen atom, can be used in the treatment of the above diseases.

GP IIb/IIIa = GP IIb/IIIa (Homo sapiens, UniProt P05106+P08514); test: GP IIb/IIIa antagonistic activity (method of Pharmacological Test 2 in WO 94/21599); assay type: binding
Sequence of GP IIb/IIIa (P08514 32-887 limits assumed): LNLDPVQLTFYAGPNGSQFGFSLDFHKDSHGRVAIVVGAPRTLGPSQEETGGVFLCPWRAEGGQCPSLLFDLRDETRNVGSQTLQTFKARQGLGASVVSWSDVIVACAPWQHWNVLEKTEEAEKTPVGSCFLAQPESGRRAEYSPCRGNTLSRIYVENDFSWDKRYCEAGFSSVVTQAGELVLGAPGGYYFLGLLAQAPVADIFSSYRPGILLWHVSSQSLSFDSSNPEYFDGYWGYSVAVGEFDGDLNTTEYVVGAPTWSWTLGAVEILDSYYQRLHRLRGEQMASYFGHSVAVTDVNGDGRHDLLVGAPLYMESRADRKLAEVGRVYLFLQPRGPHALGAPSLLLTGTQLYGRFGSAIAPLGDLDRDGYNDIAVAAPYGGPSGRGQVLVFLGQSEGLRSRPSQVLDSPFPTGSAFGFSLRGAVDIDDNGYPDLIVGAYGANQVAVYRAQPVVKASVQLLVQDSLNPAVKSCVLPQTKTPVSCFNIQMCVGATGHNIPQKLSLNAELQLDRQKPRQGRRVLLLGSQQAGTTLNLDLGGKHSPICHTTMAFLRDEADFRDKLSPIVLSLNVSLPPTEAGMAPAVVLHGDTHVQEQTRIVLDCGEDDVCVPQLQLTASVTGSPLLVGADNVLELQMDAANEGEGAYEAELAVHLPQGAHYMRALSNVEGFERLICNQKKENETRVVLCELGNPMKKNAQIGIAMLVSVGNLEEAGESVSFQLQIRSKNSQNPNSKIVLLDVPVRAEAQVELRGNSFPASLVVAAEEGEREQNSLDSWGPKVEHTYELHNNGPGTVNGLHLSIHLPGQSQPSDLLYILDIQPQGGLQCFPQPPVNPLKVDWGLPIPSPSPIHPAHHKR
Sequence of GP IIb/IIIa (P08514 891-1039 partner limits assumed): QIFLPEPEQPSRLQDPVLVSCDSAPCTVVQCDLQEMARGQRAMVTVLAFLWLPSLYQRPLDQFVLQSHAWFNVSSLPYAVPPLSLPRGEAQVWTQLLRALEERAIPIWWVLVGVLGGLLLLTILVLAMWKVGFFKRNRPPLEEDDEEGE
Sequence of GP IIb/IIIa (P05106 27-788): as the sequence (P05106 27-788) above
Experimental: as §1
GP IIb/IIIa antagonistic activity was measured for the compounds according to the present invention. The measurement of the GP IIb/IIIa antagonistic activity was carried out according to the method described in Pharmacological Test 2 in WO 94/21599.

mice = test: Acute toxicity test, intravenous administration to mice; assay type: in vivo; conditions: 12.5 mg/kg
From the text: The compound of Example 3 was intravenously administered to mice.

SMILES | pIC50 [1] | pIC50 [2] | human platelet aggregation inhibition (in words) [3] | pIC50 ([3]; read-out: IC50, human platelet aggregation inhibition) | oral absorption (Oral absorption in rats) | GP IIb/IIIa antagonistic activity (in words) (GP IIb/IIIa) | acute toxicity, symptoms (mice)
O=C(N[C@@H](CNC(=O)c1ccc(N2CCN(C3=NCCCN3)CC2)cc1)C(=O)O)OCc1ccccc1 [Example 30, (2S)-Benzyloxycarbonylamino-3-[4-{4-(1,4,5,6-tetrahydropyrimidin-2-yl)-piperazin-1-yl}-benzoylamino]-propionic Acid] | 6.12 | 7.51 |  |  |  |  | 
O=C(NC[C@H](NS(=O)(=O)c1ccccc1)C(=O)O)c1ccc(N2CCN(C3=NCCCN3)CC2)cc1 [Example 3, (2S)-Benzenesulfonylamino-3-[4-{4-(1,4,5,6-tetrahydropyrimidin-2-yl)-piperazin-1-yl}-benzoylamino]-propionic acid] |  |  | very strongly inhibited human platelet aggregation | 7.47 | excellent oral absorption | extremely high GP IIb/IIIa antagonistic activity | no special symptom was developed
